In US7022737B2, “Manipulating nitrosative stress to kill pathologic microbes, pathologic helminths and pathologically proliferating cells or to upregulate nitrosative stress defenses” (Duke University, priority 1996, dated 2006):

Experiments:
small cell lung cancer = assay: Patients with small cell lung cancer; format: in vivo; settings: cyclophosphamide, NO-substituted doxirubicin IV and BSO 4 mmol/kg IV four times/day; chest X-ray in two months
Description: A person with a 80 pack-year history of smoking presents with hemoptosis and weight loss. […] The patient is given a combination therapy of cyclophosphamide (750 mg/m^2) plus NO-substituted doxirubicin (40 mg/m^2) and vincristine (2 mg) (all administered i.v.). The therapeutic regimen is repeated once at three weeks.
A person with a 20 pack/year history of smoking presents with cough. […] The patient receives cyclophosphamide (750 mg/m^2 and NO-substituted doxirubicin (administered IV)). The patient also receives L-buthionine-S-sulfoximine, i.e., BSO (4 mmol/kg IV four times/day).

restenosis [1] = assay: Patients with coronary stenosis treated to prevent restenosis; format: in vivo; settings: BSO 4 mmol/kg four times a day intracoronary for one week, 32P-implanted Palmaz-Schatz stent
[2] = tested on: benign prostatic hypertrophy; assay: Patients with benign prostatic hypertrophy; format: in vivo
From the text: A person presents with a history of urinary hesitancy and multiple awakenings during the night. They are given a diagnosis of benign prostatic hypertrophy. Under stereotactic guidance, the patient's enlarged prostate gland is implanted with several porus polymer pellets designed to slowly release L-buthionine-S-sulfoximine (1 μmol/hr) and S-nitrosocysteine (1 μmol/hr). […] They then have nearly normal urine flow and usually wakes no more than once per night.
A similar patient with benign prostatic hypertrophy and very marked enlargement of their prostate is treated with NO-substituted finasteride (NO-substituted Proscar; 5 mg/day). NO-substitution is accomplished by replacement of the tert-butyl amine moiety of finasteride with S-nitroso-β-thio-tert-butyl amine.
A person with benign prostatic hypertrophy is treated with Finisteride (Proscar: 5 mg/day) and oral buthionine-S-sulfoximine at a dose of 10 mmol/kg four time/day.

restenosis [3] = assay: Patients with coronary stenosis treated to prevent restenosis; format: in vivo
From the text: BSO therapy is continued for one week.
A person with blue eyes and gray hair presents with chest pain. […] The patient undergoes balloon angioplasty and placement of a Palmaz-Schatz stent, which is P^32-implanted and coated with a cyclodextran polymer to which BSO is attached by an ester linkage.
A patient similar to the one described above undergoes balloon angioplasty and placement of a Palmaz-Schatz stent which is coated with cyclodextran polymer to which ethyl maleate is attached by an ester linkage. […]
A person with restenosis six months post angioplasty has a Palmaz-Schatz stent placed. The stent is coated with a porous polymer containing 10% of the siderophore ferrioxamine B and 0.1% each of interleukin-1 and interferon-gamma. The latter agents induce the local expression of the inducible isoform of nitric oxide synthase. […]

trypanosomes = assay: Patient with trypanosome infection; format: in vivo; settings: L-buthionine-S-sulfoximine 3 mmol/kg p.o. every 4 hours and S-nitrosoglutathione iv 10 mg/kg every 8 hours, one week
Description: A person presents with high fever, moderate lymphadenopathy and reports that they have lost 40 pounds in the last month, two months after returning from a safari in sub-Saharan Africa. On questioning, the patient reports having developed during the safari an ulcer on their forearm two days following a bite by a fly. […] The patient is hospitalized and given L-buthionine-S-sulfoximine at a dose of 3 mmol/kg p.o. every 4 hours for one week. In addition, the patient receives S-nitrosoglutathione iv at a dose of 10 mg/kg every 8 hours for one week.

Giardia lamblia = assay: Patient with Giardia lamblia infection; format: in vivo; settings: 4 mmol/kg four times a day p.o. with metronidazole 500 mg twice a day p.o. for five days
[4] = tested on: metastatic malignant melanoma; assay: Patient with metastatic malignant melanoma; format: in vivo; settings: L-buthionine-S-sulfoximine 2 mmol/kg p.o. every 4 hours and hydroxyurea 10 mg/kg p.o., one week
Description: A person […] and a history of surgery five years previously to remove malignant melanotic nevi from their upper back and chest is found to have blood in their stool on routine physical examination. […] The patient is administered L-buthionine-S-sulfoximine (2 mmol/kg) p.o. every 4 hours for one week and is given 10 mg/kg of hydroxyurea p.o. 1 hour after every third dose of L-buthionine-S-sulfoximine. […] The patient shown no further evidence of metastases during a six month follow-up.

herpes labialis = assay: Patient with recurrent herpes labialis; format: in vivo; settings: in Denavir (pencicyclovir cream), topically every two hours while awake
From the text: A homosexually active person developed a recurrent herpes labialis (cold sore) on their lips and face. Therapy with Denavir (pencicyclovir cream) that contains buthionine sulfoximine is applied topically every two hours while awake.

[5] = target: T1, gamma-glutamylcysteinyl synthetase (gamma-GCS) (Rattus norvegicus, UniProt P19468); settings: mammalian systems, literature; cited from earlier work
T1 sequence (P19468 1-637): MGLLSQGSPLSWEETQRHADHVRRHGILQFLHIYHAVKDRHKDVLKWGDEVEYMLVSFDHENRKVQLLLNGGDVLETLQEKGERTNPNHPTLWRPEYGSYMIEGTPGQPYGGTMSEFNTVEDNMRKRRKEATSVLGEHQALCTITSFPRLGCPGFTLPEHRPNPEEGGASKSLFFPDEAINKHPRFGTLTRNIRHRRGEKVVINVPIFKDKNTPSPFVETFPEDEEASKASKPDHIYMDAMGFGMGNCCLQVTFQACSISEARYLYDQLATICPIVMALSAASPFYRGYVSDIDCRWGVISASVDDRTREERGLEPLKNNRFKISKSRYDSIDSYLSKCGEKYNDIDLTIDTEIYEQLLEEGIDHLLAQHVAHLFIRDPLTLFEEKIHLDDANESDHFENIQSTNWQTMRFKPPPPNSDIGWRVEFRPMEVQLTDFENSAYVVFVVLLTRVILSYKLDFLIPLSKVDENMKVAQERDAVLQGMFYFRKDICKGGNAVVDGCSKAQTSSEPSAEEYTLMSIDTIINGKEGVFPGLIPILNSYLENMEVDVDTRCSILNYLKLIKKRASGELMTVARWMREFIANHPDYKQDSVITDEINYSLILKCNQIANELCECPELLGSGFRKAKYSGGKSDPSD
T1 sequence (P48508 1-274 partner): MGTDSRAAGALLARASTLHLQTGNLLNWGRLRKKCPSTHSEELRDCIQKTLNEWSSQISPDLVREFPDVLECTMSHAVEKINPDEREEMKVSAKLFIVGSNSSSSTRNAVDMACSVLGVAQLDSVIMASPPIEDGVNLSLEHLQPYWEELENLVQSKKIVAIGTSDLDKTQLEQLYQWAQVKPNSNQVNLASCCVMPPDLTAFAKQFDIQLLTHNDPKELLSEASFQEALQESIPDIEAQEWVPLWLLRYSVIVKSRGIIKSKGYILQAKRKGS

In the case of `CCCCS(=N)(=O)CC[C@H](N)C(=O)O` (stereo partly drawn) [L-buthionine-S-sulfoximine], the clinical outcome (small cell lung cancer) was “decrease in size of the mass”, the clinical outcome (restenosis [1]) was “repeat of their angiogram shows no restenosis” and the clinical outcome ([2]; Finisteride 5 mg/day and oral buthionine-S-sulfoximine 10 mmol/kg four time/day) was “symptoms of hesitancy improve significantly over two months”. The clinical outcome ([2]; prostate-implanted polymer pellets releasing each agent at 1 μmol/hr) was “symptoms improve over a period of three weeks”, the clinical outcome (restenosis [3]; P^32-implanted stent coated with cyclodextran polymer with BSO attached by ester linkage) was “clinical restenosis does not occur” and the clinical outcome (restenosis [3]; verapamil 80 mg three times a day p.o., BSO 4 mmol/kg i.v. four times a day, NO-releasing polymer stent) was “repeat angiogram at six months shows no restenosis”. The clinical outcome (trypanosomes) was “blood smear is free of trypanosomes”, the clinical outcome (Giardia lamblia) was “stool culture becomes negative for Giardia after five days” and the “reduction in size of metastatic tumor” value [4] was 30%. For the same compound, the “mean duration of the lesion versus Denavir without BSO” value (herpes labialis) was “half the time shorter” and the “inhibition of gamma-GCS” value [5] was “most effectively inhibited”.
